Key:
S. aureus CECT 976 = experiment: MIC/MBC by broth microdilution, S. aureus CECT 976; type: cell-based; conditions: Staphylococcus aureus, CECT976, S. aureus CECT 976, broth microdilution; for MIC: 24 h, 37 °C, read-out: MIC; for MBC: plated on PCA, read-out: MBC
Procedure: (§1) The minimum inhibitory concentration (MIC) and minimum bactericidal concentration (MBC) values of all QHSs were determined by the broth microdilution method, according to the approved M7-A7 (aerobes) standards of the Clinical and Laboratory Standards Institute (CLSI) guidelines. Overnight cell cultures of S. aureus, in the exponential phase of growth, were adjusted to an optical density (OD) of 0.132 ± 0.02 (λ = 600 nm). Then, a volume of 180 µL of the cell suspension was added to sterile, flat, clear-bottomed polystyrene (PS) 96-well microtiter plates (VWR—Radnor, PA, USA), already containing 20 µL of each QHS under study at concentrations ranging from 0.0625 to 64 µg/mL. In the end, the volume of each compound never exceeded 10% (v/v) of the well volume. Microtiter plates were then incubated for 24 h at 37 °C under agitation (150 rpm; INCU-Line IL 150R incubator). Absorbance measurements were performed at the beginning (t = 0 h) and end (t = 24 h) of the incubation period using a microtiter plate absorbance reader (BMG LABTECH FLUOstar Omega). Bacterial suspensions with DMSO and without QHSs were used as negative controls. […] All tests were performed with six replicates and a minimum of three independent repeats.
Plates were incubated at 37 °C for 24 h, and growth was visually inspected. […] All tests were performed in triplicate, and with a minimum of three independent repeats.

S. aureus XU212 = experiment: MIC/MBC by broth microdilution, S. aureus XU212; type: cell-based; conditions: Staphylococcus aureus
Procedure: (§2) S. aureus CECT 976, obtained from the Spanish Type Culture Collection, was used as the standard susceptibility testing control strain. This strain has been previously employed in diverse studies to validate the antimicrobial effects of novel molecules. Additional antibiotic-resistant strains, S. aureus XU212, SA1199B, and RN4220, generously provided by S. Gibbons (University College London, London, UK) were tested. […] The SA1199B strain is characterized by its resistance to fluoroquinolones due to the overexpression of the NorA efflux pump and its ciprofloxacin resistance.
as §1
(§3) Plates were incubated at 37 °C for 24 h, and growth was visually inspected. The MBC was determined as the lowest concentration of compound in which the total inhibition of growth on solid medium was observed (no colony forming units (CFUs) were detected). All tests were performed in triplicate, and with a minimum of three independent repeats.

S. aureus SA1199B = experiment: MIC/MBC by broth microdilution, S. aureus SA1199B; type: cell-based; conditions: Staphylococcus aureus
Procedure: as §2, §1, §3

S. aureus RN4220 = experiment: MIC/MBC by broth microdilution, S. aureus RN4220; type: cell-based; conditions: Staphylococcus aureus
Procedure: as §2, §1, §3

HepG2 cells = experiment: Cytotoxicity by neutral red (NR) uptake; type: cell-based, human; conditions: for NR uptake (lysosomal activity), % of control: HepG2, 24 h; for safety profile (MIC correlated with in vitro human cellular data): concentrations equal to or below 2 µg/mL
Procedure: The evaluation of the cytotoxicity effects of QHSs was performed using hepatocellular carcinoma (HepG2) cells. […] The cells used for all experiments were taken between the 9th and 13th passages, to avoid phenotypic changes.
The cytotoxicity profile of the compounds under study was evaluated in HepG2 cells (2.5 × 10^5 cells/mL) seeded in 96-well plates. […] Control experiments were performed for viability endpoints by adding the vehicle (medium with 0.1% DMSO) instead of the compound solution.
In the NR uptake assay, following a 24 h incubation period with the test compounds, the cell culture medium was aspirated, and fresh medium containing 150 µL of the dye (at a concentration of […]) was added to the cells. […] After incubation, the cell culture medium was discarded, and a mixture of absolute ethanol and distilled water (1:1) containing 5% acetic acid was added to extract the dye accumulated within the lysosomes of viable cells. The absorbance at 540 nm was measured using a microplate reader (Synergy HTX Multi-Mode Reader—BioTek, Winooski, VT, USA).
For all assays, results are expressed as a percentage of the control (nontreated cells), taken as 100%.

[1] = tested on: S. aureus XU212, SA1199B, and RN4220; experiment: MIC/MBC by broth microdilution, ranges over the antibiotic-resistant strains; type: cell-based, Staphylococcus aureus
Procedure: as §2
The minimum inhibitory concentration (MIC) and minimum bactericidal concentration (MBC) values of all QHSs were determined by the broth microdilution method, according to the approved M7-A7 (aerobes) standards of the Clinical and Laboratory Standards Institute (CLSI) guidelines. […] Absorbance measurements were performed at the beginning (t = 0 h) and end (t = 24 h) of the incubation period using a microtiter plate absorbance reader (BMG LABTECH FLUOstar Omega). […]
Plates were incubated at 37 °C for 24 h, and growth was visually inspected. The MBC was determined as the lowest concentration of compound in which the total inhibition of growth on solid medium was observed (no colony forming units (CFUs) were detected). […]

Row | Structure (SMILES) | MIC (S. aureus CECT 976) [mg/L] | MBC (S. aureus CECT 976) [mg/L] | MBC (S. aureus XU212) [mg/L] | MIC (S. aureus XU212) [mg/L] | MBC (S. aureus SA1199B) [mg/L] | MIC (S. aureus SA1199B) [mg/L] | MBC (S. aureus RN4220) [mg/L] | MIC (S. aureus RN4220) [mg/L] | NR uptake (lysosomal activity), % of control (HepG2 cells; 2 µg/mL) | NR uptake (lysosomal activity), % of control (HepG2 cells; 16 µg/mL) | NR uptake (lysosomal activity), % of control (HepG2 cells; 32 µg/mL) | safety profile (MIC correlated with in vitro human cellular data) (HepG2 cells) | NR uptake (lysosomal activity), % of control (HepG2 cells; 1 µg/mL) | MBC values, range over strains [1] [mg/L]
1 | CCCCCCCCCCCCCC[n+]1ccc2ccccc2c1.[Br-] [Compound 3e, 2-Tetradecylisoquinolin-2-ium bromide] | 2 | 8 | 8 | 4 | 8 | 2 | 4 | 2 | 79.86 ± 9.893% (****) | 12.68 ± 2.385% (****) | 12.77 ± 1.368% (****) |  |  | 
2 | CCCCCCCCCCCCCC[n+]1ccc(C)cc1.[Br-] [Compound 4e, 4-Methyl-1-tetradecylpyridin-1-ium bromide] | 2 | 8 | 32 | 32 | 32 | 8 | 8 | 4 |  | 14.45 ± 2.437% (****) | 21.52 ± 19.06% (****) | favourable safety profile |  | 
3 | CCCCCCCCCCCCCC[n+]1ccccc1.[Br-] [Compound 6e, 1-Tetradecylpyridin-1-ium bromide] | 4 | 8 | 64 | 32 | 16 | 16 | 8 | 4 |  | 10.46 ± 3.129% (****) | 12.93 ± 3.760% (****) |  |  | 
4 | CCCCCCCCCCCCCC[n+]1ccn(C)c1.[Br-] [Compound 2e, 1-Methyl-3-tetradecyl-1H-imidazol-3-ium bromide] | 1 | 8 | 64 | 32 | 32 | 8 | 8 | 4 | 86.71 ± 4.103% (****) | 12.85 ± 2.005% (****) | 13.64 ± 2.776% (****) | favourable safety profile |  | 
5 | CCCCCCCCCCCCCC[P+](c1ccccc1)(c1ccccc1)c1ccccc1 [Compound 1e, Triphenyl(tetradecyl)phosphonium bromide] | 1 | 16 | 2 | 2 | 2 | 1 | 2 | 1 | 72.84 ± 7.906% (****) | 12.29 ± 3.775% (****) | 13.78 ± 2.666% (****) |  | 53.86 ± 4.854% (****) | 2
6 | CCCCCCCCCCCCCC[n+]1cccc2ccccc21.[Br-] [Compound 5e, 1-Tetradecylquinolin-1-ium bromide] | 2 | 8 | 8 | 8 | 8 | 4 | 8 | 2 | 88.20 ± 3.101% (****) | 12.06 ± 2.988% (****) | 14.38 ± 4.045% (****) | favourable safety profile |  | 8

Reference: article PMC10778626, “Efficacy of Novel Quaternary Ammonium and Phosphonium Salts Differing in Cation Type and Alkyl Chain Length against Antibiotic-Resistant Staphylococcus aureus” (International Journal of Molecular Sciences, 2023)
